# Test results from patent publication US20070112068A1, “Nitrile compound and its use in pest control” (priority 2003, published 2007).
# What was measured:
# Format in all cases: in vivo
# Blattella germanica [1] = assay: Experimental Example 18: smoking preparation in Peet-Grady chamber, Blattella germanica; conditions: smoking preparation (Formulation Example 16); 2 hours exposure, after 72 hours
# Procedure: Plastic cups (diameter: 12.5 cm, height: 8 cm) containing 10 (5 males and 5 females) imagoes of Blattella germanica were placed at the two corners of a Peet-Grady chamber with 1.8 m (width)×1.8 m (depth)×1.8 m (height). A plastic container containing water was placed at the center of the bottom of the Peet-Grady chamber and a smoking preparation of the present compound (31) prepared according to Formulation Example 16 was placed in this plastic cup. After 2 hours, Blattella germanica was collected, transferred to a 200 mL plastic cup, and left together with feed and water at 25° C. After 72 hours, the number of surviving Blattella germanica was examined and the death rate of the pest was calculated.
# Formica fusca japonica = assay: Experimental Example 23: treated filter paper on cup lid, Formica fusca japonica; conditions: 0.1 ml of 5% (w/v) acetone solution on filter paper on lid; after 7 days
# Procedure: A 5% (w/v) solution of the present compound (31) in acetone is prepared. 0.1 ml of the solution is added dropwise to a filter paper with 2 cm×2 cm and then air-dried. 10 imagoes of Formica fusca japonica are released in a plastic cup having a diameter of 12.5 cm and a height of 8 cm. After feed and water are placed therein, the cup is closed with a lid. The aforementioned pesticide-treated filter paper is attached to the inner surface of the lid. In addition, the inside wall of the cup is coated with talc for preventing the climbing of ants. This cup is kept at 25° C.
# Blattella germanica [2] = assay: Experimental Example 15: treated filter paper in paper box, Blattella germanica; conditions: 0.1 ml of 2.5% (w/v) acetone solution on filter paper in paper box; after 7 days
# Procedure: 2.5% (w/v) solutions of the present compounds (23), (24) and (31) in acetone were prepared. 0.1 ml of the solution was added dropwise onto a filter paper with 2 cm×2 cm and then air-dried. This filter paper was attached to the center of the inside bottom of a paper box having 10 cm (width)×2 cm (height)×7 cm (depth) with a two-sided tape. One hole of 5 mm in width and 2 cm in height was made through one side of this box. This box was placed in a plastic vat with 25 cm×20 cm×8 cm in height and therein 10 females and 10 males of Blattella germanica were released. The inside wall of the plastic vat used in this experiment was coated with talc for preventing the escape of cockroaches. The plastic vat contained feed and water and left at 25° C. After 7 days, Blattella germanica was observed and the death rate of the pest was calculated. This experiment was repeated two times.
# Blattella germanica [3] = assay: Experimental Example 22: treated filter paper suspended in chamber, Blattella germanica; conditions: 10 mL of 10% (w/v) acetone solution on filter paper; 70 cm cube chamber; after 72 hours
# Procedure: A 10% (w/v) solution of the present compound (31) in acetone is prepared. 10 mL of the solution is uniformly added dropwise to a filter paper with 10 cm×25 cm and then air-dried. The filter paper is suspended from the center of the ceiling of a chamber with 70 cm (width)×70 cm (depth)×70 cm (height). After 20 imagoes (10 males and 10 females) of Blattella germanica are released, the door of the chamber is closed. Feed and water are placed in the glass chamber.
# Megaselia spiracularis = assay: Experimental Example 8: treated filter paper suspended in glass chamber, Megaselia spiracularis; conditions: 2.5 ml of 2% (w/v) acetone solution on filter paper; 70 cm cube chamber; 2 hours exposure, 24 hours later
# Procedure: A 2% (w/v) solution of the present compound (31) in acetone was prepared. Onto a filter paper with 10 cm×12.5 cm, 2.5 ml of the solution was added dropwise uniformly and then air-dried. This filter paper was suspended from the center of the ceiling of a glass chamber with 70 cm (width)×70 cm (depth)×70 cm (height) and therein 20 imagoes of Megaselia spiracularis were released. After 2 hours, all test pests were collected, put in a plastic cup together with absorbent cotton impregnated with 5% sugar water, and then left at 25° C. After 24 hours, the number of surviving Megaselia spiracularis was examined and the death rate was calculated.
# Culex pipiens pallens = assay: Experimental Example 10: treated filter paper in Peet-Grady chamber, Culex pipiens pallens; conditions: 5 ml of 1% (w/v) acetone solution on filter paper; 1.8 m Peet-Grady chamber; female imagoes; 1 hour exposure, 24 hours later
# Procedure: A 1% (w/v) solution of the present compound (31) in acetone was prepared. Onto a filter paper with 10 cm×25 cm, 5 ml of the solution was added dropwise uniformly and then air-dried. This filter paper was suspended from the center of the ceiling center of a Peet-Grady chamber with 1.8 m (width)×1.8 m (depth)×1.8 m (height) and therein about 50 female imagoes of Culex pipiens pallens were released. After 1 hour, all test pests were collected, put into a plastic cup together with absorbent cotton impregnated with 5% sugar water, and then left at 25° C. After 24 hours, the number of surviving Culex pipiens pallens was examined and the death rate was calculated.
# Blattella germanica [4] = assay: Experimental Example 13: direct oil spray in CSMA chamber, Blattella germanica; conditions: 1.5 ml of 0.025% (w/v) oil sprayed directly; after 3 days
# Procedure: 7.5 mg of the present compound (31) was dissolved in 30 mL of a mixture of 90 parts by weight of Isopar M (isoparaffin, the registered trade name of Exxon Chemical) and 10 parts by weight of dichloromethane to prepare a 0.025% (w/v) oil. A plastic container (diameter: 9.5 cm, height: 4 cm, bottom part of 16 mesh wire) containing 10 imagoes (5 males and 5 females) of Blattella germanica was placed on the bottom of a CSMA chamber (width: 46 cm, depth: 46 cm, height: 70 cm).
# 1.5 ml of the oil was directly sprayed on test cockroaches from the upper side of the CSMA chamber. After 30 seconds from spraying, the container containing cockroaches was removed. All cockroaches were transferred to another clean plastic container (200 mL) and left together with feed and water at 25° C. After 3 days, the number of surviving Blattella germanica was examined and the death rate of the pest was calculated.
# Blattella germanica [5] = assay: Experimental Example 21: poison bait, Blattella germanica; conditions: poison bait: 3 ml of 0.5% by weight acetone solution per 3 g animal feed; 1 g bait; after 7 days
# Procedure: 3 ml of a 0.5% by weight solution of the present compound (31) in acetone is added dropwise to 3 g of animal powdery feed, mixed thoroughly, and then air-dried to obtain a poison bait. 1 g of this poison bait is placed on an aluminum dish and the dish is placed in a plastic cup (860 mL) containing 20 imagoes (10 males and 10 females) of Blattella germanica. The pest is given water and kept at 25° C. After 7 days, the number of surviving Blattella germanica is examined and the activity of the poison bait is obtained.
smiles,measurement,setting,value
N#CC(C#N)(CCC(F)(F)F)CC(F)(F)C(F)(F)C(F)(F)C(F)F [(31)],death rate of the pest,Blattella germanica [1],100%
same,pesticidal effect,Formica fusca japonica,pesticidal effect on Formica fusca japonica is confirmed
same,death rate of the pest,Blattella germanica [2],100%
same,pesticidal effect,Blattella germanica [3],pesticidal effect on Blattella germanica is confirmed
same,death rate of the pest,Megaselia spiracularis,100%
same,death rate of the pest,Culex pipiens pallens,86%
same,death rate of the pest,Blattella germanica [4],100%
same,activity of the poison bait,Blattella germanica [5],sufficient pesticidal effect
